Laboratory results as given in PubChem BioAssay (NCI).
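A five-concentration, 48-hour dose response in 96-well plates underlies each endpoint, interpolated linearly between surrounding concentrations. TGI is the concentration that stops growth completely.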

Columns and labels:
Experiment in all cases: NCI tumour cell line growth inhibition, 48 h
A498 renal = system: A498 renal
A549 NSCLC = system: A549 NSCLC
CAKI-1 renal = system: CAKI-1 renal
CCRF-CEM leukemia = system: CCRF-CEM leukemia
COLO 205 colon = system: COLO 205 colon
DLD-1 colon = system: DLD-1 colon
DMS 114 small cell lung = system: DMS 114 small cell lung
DMS 273 small cell lung = system: DMS 273 small cell lung
EKVX NSCLC = system: EKVX NSCLC
HCC-2998 colon = system: HCC-2998 colon
HCT-116 colon = system: HCT-116 colon
HCT-15 colon = system: HCT-15 colon
HL-60(TB) leukemia = system: HL-60(TB) leukemia
HOP-18 NSCLC = system: HOP-18 NSCLC
HOP-62 NSCLC = system: HOP-62 NSCLC
HOP-92 NSCLC = system: HOP-92 NSCLC
HT29 colon = system: HT29 colon
IGROV1 ovarian = system: IGROV1 ovarian
K-562 leukemia = system: K-562 leukemia
KM12 colon = system: KM12 colon
KM20L2 colon = system: KM20L2 colon
LOX IMVI melanoma = system: LOX IMVI melanoma
M19-MEL melanoma = system: M19-MEL melanoma
MALME-3M melanoma = system: MALME-3M melanoma
MCF7 breast = system: MCF7 breast
MOLT-4 leukemia = system: MOLT-4 leukemia
NCI-H226 lung = system: NCI-H226 lung
NCI-H23 lung = system: NCI-H23 lung
NCI-H460 lung = system: NCI-H460 lung
NCI-H522 lung = system: NCI-H522 lung
NCI/ADR-RES ovarian = system: NCI/ADR-RES ovarian
OVCAR-3 ovarian = system: OVCAR-3 ovarian
OVCAR-4 ovarian = system: OVCAR-4 ovarian
OVCAR-5 ovarian = system: OVCAR-5 ovarian
OVCAR-8 ovarian = system: OVCAR-8 ovarian
P388 leukemia = system: P388 leukemia
P388/ADR leukemia = system: P388/ADR leukemia
RPMI-8226 leukemia = system: RPMI-8226 leukemia
RXF 393 renal = system: RXF 393 renal
SF-268 CNS = system: SF-268 CNS
SF-295 CNS = system: SF-295 CNS
SF-539 CNS = system: SF-539 CNS
SK-MEL-2 melanoma = system: SK-MEL-2 melanoma
SK-MEL-28 melanoma = system: SK-MEL-28 melanoma
SK-MEL-5 melanoma = system: SK-MEL-5 melanoma
SK-OV-3 ovarian = system: SK-OV-3 ovarian
SN12C renal = system: SN12C renal
SN12K1 renal = system: SN12K1 renal
SNB-19 CNS = system: SNB-19 CNS
SNB-75 CNS = system: SNB-75 CNS
SNB-78 CNS = system: SNB-78 CNS
SW-620 colon = system: SW-620 colon
U251 CNS = system: U251 CNS
UACC-257 melanoma = system: UACC-257 melanoma
UACC-62 melanoma = system: UACC-62 melanoma
UO-31 renal = system: UO-31 renal
XF 498 CNS = system: XF 498 CNS
786-0 renal = system: 786-0 renal
ACHN renal = system: ACHN renal
LXFL 529 NSCLC = system: LXFL 529 NSCLC
M14 melanoma = system: M14 melanoma
RXF-631 renal = system: RXF-631 renal
SR leukemia = system: SR leukemia
TK-10 renal = system: TK-10 renal

## N/C(=N\N=C/c1cc([N+](=O)[O-])cc([N+](=O)[O-])c1O)NO
A498 renal
  TGI: > 100 µM
A549 NSCLC
  TGI: > 100 µM
CAKI-1 renal
  TGI: > 100 µM
CCRF-CEM leukemia
  TGI: > 100 µM
COLO 205 colon
  TGI: > 31.6 µM
DLD-1 colon
  TGI: > 100 µM
DMS 114 small cell lung
  TGI: > 100 µM
DMS 273 small cell lung
  TGI: > 43.3 µM
EKVX NSCLC
  TGI: > 100 µM
HCC-2998 colon
  TGI: > 100 µM
HCT-116 colon
  TGI: > 100 µM
HCT-15 colon
  TGI: > 100 µM
HL-60(TB) leukemia
  TGI: > 55 µM
HOP-18 NSCLC
  TGI: > 100 µM
HOP-62 NSCLC
  TGI: > 39.1 µM
HOP-92 NSCLC
  TGI: > 100 µM
HT29 colon
  TGI: > 100 µM
IGROV1 ovarian
  TGI: > 100 µM
K-562 leukemia
  TGI: > 91.2 µM
KM12 colon
  TGI: > 100 µM
KM20L2 colon
  TGI: > 100 µM
LOX IMVI melanoma
  TGI: > 100 µM
M19-MEL melanoma
  TGI: > 100 µM
MALME-3M melanoma
  TGI: > 100 µM
MCF7 breast
  TGI: > 100 µM
MOLT-4 leukemia
  TGI: > 100 µM
NCI-H226 lung
  TGI: > 100 µM
NCI-H23 lung
  TGI: > 100 µM
NCI-H460 lung
  TGI: > 100 µM
NCI-H522 lung
  TGI: > 100 µM
NCI/ADR-RES ovarian
  TGI: > 100 µM
OVCAR-3 ovarian
  TGI: > 100 µM
OVCAR-4 ovarian
  TGI: > 100 µM
OVCAR-5 ovarian
  TGI: > 87.3 µM
OVCAR-8 ovarian
  TGI: > 100 µM
P388 leukemia
  TGI: 21.9 µM
P388/ADR leukemia
  TGI: > 100 µM
RPMI-8226 leukemia
  TGI: > 100 µM
RXF 393 renal
  TGI: > 100 µM
SF-268 CNS
  TGI: > 100 µM
SF-295 CNS
  TGI: > 100 µM
SF-539 CNS
  TGI: > 100 µM
SK-MEL-2 melanoma
  TGI: > 100 µM
SK-MEL-28 melanoma
  TGI: > 100 µM
SK-MEL-5 melanoma
  TGI: > 38.4 µM
SK-OV-3 ovarian
  TGI: > 100 µM
SN12C renal
  TGI: > 100 µM
SN12K1 renal
  TGI: 4.92 µM
SNB-19 CNS
  TGI: > 100 µM
SNB-75 CNS
  TGI: > 80.9 µM
SNB-78 CNS
  TGI: > 100 µM
SW-620 colon
  TGI: > 100 µM
U251 CNS
  TGI: > 100 µM
UACC-257 melanoma
  TGI: > 100 µM
UACC-62 melanoma
  TGI: > 31.1 µM
UO-31 renal
  TGI: > 100 µM
XF 498 CNS
  TGI: 98.1 µM

## C1=C(c2ccccc2)C(OC2Oc3ccccc3C=C2c2ccccc2)Oc2ccccc21 (stereo unspecified)
786-0 renal
  TGI: > 100 µM
A498 renal
  TGI: > 100 µM
A549 NSCLC
  TGI: > 100 µM
ACHN renal
  TGI: > 100 µM
CAKI-1 renal
  TGI: > 100 µM
CCRF-CEM leukemia
  TGI: > 100 µM
COLO 205 colon
  TGI: > 100 µM
DLD-1 colon
  TGI: > 100 µM
DMS 114 small cell lung
  TGI: > 100 µM
DMS 273 small cell lung
  TGI: > 100 µM
EKVX NSCLC
  TGI: > 100 µM
HCC-2998 colon
  TGI: > 100 µM
HCT-116 colon
  TGI: > 100 µM
HCT-15 colon
  TGI: > 100 µM
HL-60(TB) leukemia
  TGI: > 100 µM
HOP-18 NSCLC
  TGI: > 100 µM
HOP-62 NSCLC
  TGI: > 100 µM
HOP-92 NSCLC
  TGI: > 100 µM
HT29 colon
  TGI: > 100 µM
IGROV1 ovarian
  TGI: > 100 µM
K-562 leukemia
  TGI: > 100 µM
KM12 colon
  TGI: > 100 µM
KM20L2 colon
  TGI: > 100 µM
LOX IMVI melanoma
  TGI: > 100 µM
LXFL 529 NSCLC
  TGI: > 100 µM
M14 melanoma
  TGI: > 100 µM
M19-MEL melanoma
  TGI: > 100 µM
MALME-3M melanoma
  TGI: > 100 µM
MOLT-4 leukemia
  TGI: > 100 µM
NCI-H226 lung
  TGI: > 100 µM
NCI-H23 lung
  TGI: > 100 µM
NCI-H460 lung
  TGI: > 100 µM
NCI-H522 lung
  TGI: > 100 µM
OVCAR-3 ovarian
  TGI: > 100 µM
OVCAR-5 ovarian
  TGI: > 100 µM
OVCAR-8 ovarian
  TGI: > 100 µM
RPMI-8226 leukemia
  TGI: > 100 µM
RXF 393 renal
  TGI: > 100 µM
RXF-631 renal
  TGI: > 100 µM
SF-268 CNS
  TGI: > 100 µM
SF-295 CNS
  TGI: > 100 µM
SK-MEL-2 melanoma
  TGI: > 100 µM
SK-MEL-28 melanoma
  TGI: > 100 µM
SK-MEL-5 melanoma
  TGI: > 100 µM
SK-OV-3 ovarian
  TGI: > 100 µM
SN12C renal
  TGI: > 100 µM
SNB-19 CNS
  TGI: > 100 µM
SNB-75 CNS
  TGI: > 100 µM
SNB-78 CNS
  TGI: > 100 µM
SR leukemia
  TGI: > 100 µM
SW-620 colon
  TGI: > 100 µM
TK-10 renal
  TGI: > 100 µM
U251 CNS
  TGI: 45.1 µM
UACC-257 melanoma
  TGI: > 100 µM
UACC-62 melanoma
  TGI: > 100 µM
UO-31 renal
  TGI: > 100 µM
XF 498 CNS
  TGI: > 100 µM

## CC1=NN(C(=O)c2ccc(C)cc2)C(=O)C1N=Nc1ccccc1C(=O)O (stereo unspecified)
A498 renal
  TGI: > 100 µM
A549 NSCLC
  TGI: > 100 µM
CAKI-1 renal
  TGI: > 100 µM
CCRF-CEM leukemia
  TGI: > 100 µM
COLO 205 colon
  TGI: > 100 µM
DLD-1 colon
  TGI: > 100 µM
DMS 114 small cell lung
  TGI: > 100 µM
DMS 273 small cell lung
  TGI: > 100 µM
EKVX NSCLC
  TGI: > 100 µM
HCC-2998 colon
  TGI: > 100 µM
HCT-116 colon
  TGI: > 100 µM
HCT-15 colon
  TGI: > 100 µM
HL-60(TB) leukemia
  TGI: > 100 µM
HOP-18 NSCLC
  TGI: > 100 µM
HOP-62 NSCLC
  TGI: > 100 µM
HOP-92 NSCLC
  TGI: > 100 µM
HT29 colon
  TGI: > 100 µM
IGROV1 ovarian
  TGI: > 100 µM
K-562 leukemia
  TGI: > 100 µM
KM12 colon
  TGI: > 100 µM
KM20L2 colon
  TGI: > 100 µM
LOX IMVI melanoma
  TGI: > 100 µM
M19-MEL melanoma
  TGI: > 100 µM
MALME-3M melanoma
  TGI: > 100 µM
MCF7 breast
  TGI: > 100 µM
MOLT-4 leukemia
  TGI: > 100 µM
NCI-H226 lung
  TGI: > 100 µM
NCI-H23 lung
  TGI: > 100 µM
NCI-H460 lung
  TGI: > 100 µM
NCI-H522 lung
  TGI: > 100 µM
NCI/ADR-RES ovarian
  TGI: > 100 µM
OVCAR-3 ovarian
  TGI: > 100 µM
OVCAR-4 ovarian
  TGI: > 100 µM
OVCAR-5 ovarian
  TGI: > 100 µM
OVCAR-8 ovarian
  TGI: > 100 µM
P388 leukemia
  TGI: > 51.5 µM
P388/ADR leukemia
  TGI: > 100 µM
RPMI-8226 leukemia
  TGI: > 100 µM
RXF 393 renal
  TGI: > 100 µM
SF-268 CNS
  TGI: > 100 µM
SF-295 CNS
  TGI: > 100 µM
SF-539 CNS
  TGI: > 100 µM
SK-MEL-2 melanoma
  TGI: > 100 µM
SK-MEL-28 melanoma
  TGI: > 100 µM
SK-MEL-5 melanoma
  TGI: > 100 µM
SK-OV-3 ovarian
  TGI: > 100 µM
SN12C renal
  TGI: > 100 µM
SN12K1 renal
  TGI: > 100 µM
SNB-19 CNS
  TGI: > 100 µM
SNB-75 CNS
  TGI: 98.9 µM
SNB-78 CNS
  TGI: > 100 µM
SW-620 colon
  TGI: > 100 µM
U251 CNS
  TGI: > 100 µM
UACC-257 melanoma
  TGI: > 100 µM
UACC-62 melanoma
  TGI: > 100 µM
UO-31 renal
  TGI: > 100 µM
XF 498 CNS
  TGI: > 100 µM
